We go through one molecule from patent US5208344A, “Naphthalenepropionic acid derivatives as anti-inflammatory/antiallergic agents” (American Home Products Corporation, priority 1991, dated 1993).

Structures can show the parent of a compound that is named as a salt.

The assay concerns ovalbumin-induced bronchoconstriction. Kind of assay: inhibition of antigen (ovalbumin)-induced bronchoconstriction in anesthetized guinea pigs. Format: in vivo. The following applies: orally administered 4 hours before induction; guinea pig; 240 min. As for the experimental part:
The compounds of the invention are tested to measure their in vivo ability to inhibit the bronchoconstriction induced in anesthetized guinea pigs by exogenously administered antigen.
Male Hartley guinea pigs (400-700 gm) are sensitized three weeks prior to antigen (ovalbumin-OA) challenge as follows: each guinea pig is given two intramuscular injections--0.35 ml of Grade V OA, 50 mg/ml, into each hindlimb.
Guinea pigs, fasted overnight but allowed water adlibitum, are anesthetized with 1.2 g/kg of urethane (intraperitoneal). Supplemental does of […] of urethane are administered intraperitoneally as needed. One carotid artery and one jugular vein are cannulated to allow for the monitoring of blood pressure and the administration of drugs, respectively. A duodenal cannula is inserted for intraduodenal dosing studies. The trachea of each animal is cannulated and connected to a Harvard respirator. […] Respiratory overflow pressure is measured from a side arm off the tracheal cannula which is connected via a Gould or Beckman pressure transducer to a suitable strip chart recorder. […]
Test compounds are administered intravenously, perorally, or intraduodenally at appropriate times prior to OA challenge. […] Control experiments are used to determine the effects of solvents on the measured parameters, and test data is corrected for any significant solvent effects.
Bronchoconstriction is assessed as increases in respiratory overflow pressure (cm H2 O). Changes in blood pressure (mm Hg) are also recorded.
Test compound-induced changes in the respiratory overflow pressure are assessed as percent changes from control experiments. […] The net change in overflow pressure is measured 5 minutes after antigen challenge and is calculated as follows. […] The percent change value for the drug treated group versus the control group is calculated as follows: […]

On to `C[C@H](C(=O)O)c1ccc2cc(OCc3ccc4ccccc4n3)ccc2c1` [Example 17, S-(α)-α-Methyl-6-(2-quinolinylmethoxy)-2-naphthaleneacetic acid, tromethanime salt], for which the “ED50 (ovalbumin-induced bronchoconstriction)” value was determined as 7 mg/kg.
